Entries after “also recorded” stand apart in the source; their conditions may differ. Like-named read-outs stand apart in the source and are kept apart here.
Key:
[1] = system: progesterone-induced Ca^2+ signals in human sperm cells; assay: Inhibition of Ca^2+ signals induced by 100 nM progesterone after 5 min pre-incubation with bisphenols; type: cell-based; conditions: for Dose-dependent inhibition of progesterone-induced Ca^2+ signals (in words): 100 nM progesterone, 5 min pre-incubation; for IC50: Homo sapiens, Sperm, read-out: IC50, μM Mean
Description: (§1) Changes in the free intracellular Ca^2+ concentration [Ca^2+]i in human sperm cells were measured in 384 multi-well-plates in a fluorescence plate reader (Fluostar Omega, BMG Labtech, Germany) at 30°C as described in Rehfeld et al. ([41]). Briefly, sperm cells were incubated with the fluorescent Ca^2+ indicator Fluo-4, AM (10 μM) for 45 min at 37°C. […] Fluorescence was recorded before and after addition of 25 μL bisphenol solutions, negative control (buffer with vehicle), positive control (progesterone, 5 μM final concentration) manually with an electronic multichannel pipette to duplicate wells. […] For the inhibition studies mean basal fluorescence (F0) was defined as the last 5 cycles before addition of 100 nM progesterone.
We compared the amplitude of the Ca^2+ signals induced by 100 nM of progesterone in human sperm cells after 5 min of pre-incubation with serially diluted doses of the bisphenols or a negative buffer control.

human sperm cells [2] = assay: Ca^2+ fluorimetric assay: Ca^2+ signals ([Ca^2+]i) induced in human sperm cells; type: cell-based; conditions: for Induction of Ca^2+ signals in human sperm cells (in words): 10 μM; for EC50 / activation at 10 µM: Homo sapiens, Sperm; for EC50: read-out: EC50, μM Mean; for activation at 10 µM: read-out: Mean relative peak Ca^2+ signal at 10 μM (in %) (n = 3); for EC05, μM Mean: lowest effective dose from dose response of induced Ca^2+ signals
Description: as §1
The bisphenols were screened at a concentration of 10 μM, along a positive control (progesterone, 5 μM), and negative control (HTF^+ with vehicle). Changes in [Ca^2+]i were recorded for 4 min after addition of the chemicals and controls. We calculated the relative peak Ca^2+ signal in % induced by the bisphenols, by dividing the peak Ca^2+ signal with that of the paired positive control, in order to compare data from the different experiments.

human sperm [3] = system: human sperm; parameters: method as in doi:10.20883/jms.2016.5; conditions: 0.1 nM−1 μM ref 40; cited from earlier work
[4] = system: voltage-activated Ca^2+ channels; conditions: cited from earlier work
human sperm [5] = system: human sperm; parameters: method as in PMID 27686954; conditions: cited from earlier work
[6] = system: G protein-coupled estrogen receptor (GPER); parameters: method as in PMID 28858478; conditions: low doses ref 46; cited from earlier work
human sperm cells [7] = conditions: cited from earlier work
[8] = system: capacitated human sperm cells; assay: Image cytometry-based acrosome reaction assay; type: cell-based; conditions: 10 μM, 30 min, vs negative control
Description: The amount of live acrosome reacted sperm cells was measured using an image cytometry-based acrosome reaction assay, as described in Rehfeld et al. ([41]). Briefly, capacitated sperm cells (10 × 10^6/ml) were divided into equal aliquots and mixed thoroughly with a staining solution containing 5 μg/mL FITC-PSA, 0.5 μg/mL PI, and 10 μg/mL Hoechst in HTF^+. Bisphenols (10 μM) were added to the aliquots of stained capacitated sperm cells together with the positive controls, ionomycin (10 μM), and progesterone (10 μM). As a negative control, HTF^+ with 0.2% DMSO was used. After addition of bisphenols and controls the samples were mixed well and placed on a gentle mixing heating plate at 37°C. After 30 min of incubation, the aliquots were mixed thoroughly by pipetting and a 50 μL sample was drawn and added to a 100 μL aliquot of an immobilizing solution containing 0.6 M NaHCO3 and 0.37% (v/v) formaldehyde in distilled water. This solution was mixed well by pipetting, immediately loaded in an A2 slide (ChemoMetec A/S, Allerød, Denmark) and assessed in a NC-3000 image cytometer (ChemoMetec A/S, Allerød, Denmark). The following protocol was applied: 2-color flexicyte with Hoechst defining the sperm cells to be analyzed; Ex475-Em560/35: exposure time 3,000 ms, Ex530-Em675/75: exposure time 500 ms, with a minimum of 5,000 analyzed cells (positive for Hoechst). […]

human sperm cells [9] = assay: Sperm penetration into a viscous medium (modified Kremer's test, methylcellulose); type: cell-based; conditions: 10 μM, 60 min, counted at 2 cm, vs negative control
Description: Assessment of sperm penetration was done using sperm penetration tests with 4,000 cP methylcellulose (1% w/v) as an artificial viscous medium as described in Alasmari et al. ([43]). The viscous methylcellulose (1% w/v) medium was prepared in HTF^+ by adding 10 mg methylcellulose per mL HTF^+ and mixing it by rotation overnight at RT. The viscous methylcellulose (1% w/v) medium was introduced into glass capillary tubes [borosilicate microslides (VitroTubes) 0.20 mm × 2.0 mm × 10 cm (VitroCom, USA)] by capillary forces, by placing the glass tubes vertically in a 1.5 mL microfuge tube with 750 μL methylcellulose (1% w/v) for 15min. Care was taken to prevent air bubbles from entering the glass tubes. The end of the glass tube that was placed in the microfuge tube was sealed with wax (Hounisens laboratorieudstyr A/S, Denmark). […] The number of sperm cells were counted at 2 cm distance from the opening of the tube, with two fields in each of four planes counted. Throughout the study, all samples were counted by the same observer. Only experiments with a positive increment in cell density at 2 cm for the positive control compared to the negative control and with more than 40 sperm cells counted at 2 cm for the positive control were used for the analysis.

CatSper = assay: Induced Ca^2+ signals in absence or presence of CatSper inhibitor RU1968; conditions: RU1968 30 μM; bisphenols 5–50 μM, progesterone 5 μM; n = 3
[10] = bisphenol 10 μM, peak Ca^2+ signal divided by that of progesterone 5 μM in the same experiment
[11] = Ca^2+ signals induced by 100 nM progesterone after pre-incubation, n = 3–5
[12] = dose response of induced Ca^2+ signals, n = 3–7

| Compound | Dose-dependent inhibition of progesterone-induced Ca^2+ signals (in words) [1] | Induction of Ca^2+ signals in human sperm cells (in words) (human sperm cells [2]) | EC05, μM Mean (human sperm cells [2]; n = 3–7) | activation at 10 µM (human sperm cells [2]; [10]) | Induction of Ca^2+ signals in SKBR3 cells via GPER [6] | EC50 (human sperm cells [2]; [12]) | also measured |
| --- | --- | --- | --- | --- | --- | --- | --- |
| CC(C)(c1ccc(OCC2CO2)cc1)c1ccc(OCC2CO2)cc1 (stereo not shown) [BADGE, Bisphenol A diglycidyl ether] | dose-dependently inhibit | can induce Ca^2+ signals | 1.82 µM | – | – | – | EC50 (human sperm cells [2]): 8.18 µM; activation at 10 µM (human sperm cells [2]): 14.8% |
| CC(C)(c1ccc(O)cc1)c1ccc(O)cc1 [BPA, Bisphenol A] | – | induced no Ca^2+ signals; also recorded: do not induce Ca^2+ signals | – | 1.44% | induce Ca^2+ signals | – | Effect on human sperm motility parameters (human sperm [3]): could affect human sperm motility parameters; Activation of other voltage-activated Ca^2+ channels [4]: activate; Inhibition of other voltage-activated Ca^2+ channels [4]: inhibit; Dose inducing mitochondrial dysfunction in human sperm (human sperm [5]): ≥ 300 µM; Effect on [Ca^2+]i in single human sperm cells (human sperm cells [7]; 1 μM ref 40): rapid, transient increase; Effect on [Ca^2+]i in human sperm cells (human sperm cells [7]; 0.1, 1, and 10 μM ref 34): did not affect |
| Oc1ccc(C(c2ccc(O)cc2)(C(F)(F)F)C(F)(F)F)cc1 [BPAF, Bisphenol AF] | dose-dependently inhibit | can induce Ca^2+ signals | 0.36 µM | – | induce Ca^2+ signals | – | IC50 [1]: 12.3 µM; Live acrosome reacted sperm cells [8]: significant increase; EC50 (human sperm cells [2]): 2.4 µM; activation at 10 µM (human sperm cells [2]): 58%; Numbers of human sperm cells penetrating into a viscous medium (human sperm cells [9]): significant increase |
| CCC(C)(c1ccc(O)cc1)c1ccc(O)cc1 [BPB, Bisphenol B] | dose-dependently inhibit | can induce Ca^2+ signals | 2.37 µM | 11.8% | induce Ca^2+ signals | 14.9 µM | IC50 [1, 11]: 39.9 µM |
| Oc1ccc(C(c2ccccc2)(c2ccccc2)c2ccc(O)cc2)cc1 [BPBP, Bisphenol BP] | all bisphenols, except BPBP, were able to dose dependently inhibit | can induce Ca^2+ signals | 0.38 µM | 9.09% | – | 0.79 µM | – |
| Cc1cc(C(C)(C)c2ccc(O)c(C)c2)ccc1O [BPC, Bisphenol C] | dose-dependently inhibit | can induce Ca^2+ signals | 0.70 µM | 21.7% | – | 10.3 µM | IC50 [1, 11]: 45.2 µM |
| CC(c1ccc(O)cc1)c1ccc(O)cc1 [BPE, Bisphenol E] | – | induced no Ca^2+ signals | – | – | – | – | activation at 10 µM (human sperm cells [2]): 5.37% |
| Oc1ccc(Cc2ccc(O)cc2)cc1 [BPF, Bisphenol F] | – | induced no Ca^2+ signals | – | 5.09% | induce Ca^2+ signals | – | – |
| CC(C)c1cc(C(C)(C)c2ccc(O)c(C(C)C)c2)ccc1O [BPG, Bisphenol G] | dose-dependently inhibit | can induce Ca^2+ signals | 0.18 µM | 109% | – | 1.27 µM | IC50 [1, 11]: 1.86 µM; Live acrosome reacted sperm cells [8]: significant increase; Numbers of human sperm cells penetrating into a viscous medium (human sperm cells [9]): significant increase |
| O=S(=O)(c1ccc(O)cc1)c1ccc(O)cc1 [BPS, Bisphenol S] | – | induced no Ca^2+ signals | – | 4.41% | induce Ca^2+ signals | – | – |
| CC(=O)[C@H]1CC[C@H]2[C@@H]3CCC4=CC(=O)CC[C@]4(C)[C@H]3CC[C@]12C [progesterone] | – | – | – | – | – | – | Inhibition of the induced Ca^2+ signal in the presence of RU1968 (CatSper): highly inhibited by RU1968 |
